Results: US20220265629A1, “TREATMENT OF SYSTOLIC DYSFUNCTION AND HEART FAILURE WITH REDUCED EJECTION FRACTION WITH THE COMPOUND (R)-4-(1-((3-(DIFLUOROMETHYL)-1-METHYL-1H-PYRAZOL-4-YL)SULFONYL)-1-FLUOROETHYL)-N-(ISOXAZOL-3-YL)PIPERIDINE-1-CARBOXAMIDE” (MyoKardia, Inc., priority 2019, published 2022)
Where two headings read alike, the source gives them in different places.

Assay: Single ascending oral dose study in healthy volunteers: plasma pharmacokinetics
Assay type: in vivo, human
Settings: human, plasma, oral; for concentration at 48 h: 48 Hours Postdose; for concentration at 72 h: 72 Hours Postdose; for concentration at 6 h: 6 Hours Postdose; for concentration at 12 h: 12 Hours Postdose; for concentration at 24 h: 24 Hours Postdose
From the text: This example describes the first-in-human study of Compound I. Based on its mechanism of action, Compound I may offer a targeted therapy for patients with DCM caused by genetic or nongenetic mechanisms. The study was a randomized, double-blind, placebo-controlled, sequential group, single-ascending (oral) close study in healthy subjects aged 18-55 years. Eight dosing cohorts, each comprising eight healthy subjects, were enrolled. Within each cohort, subjects were randomized 6:2 to Compound I:placebo.
Subjects were resident at the clinical site for up to 5 days and 4 nights, from Day −1 (the day before dosing) to Day 4, and received a single dose of Compound I or placebo on Day 1. ECG telemetry was initiated 1 hour preclose and continued through 48 hours postclose (Day 3). Any subject with a preclose resting HR≥80 beats per minute was considered ineligible and not treated. […] Subjects returned for a safety follow-up visit 7 days (±1 day) after dosing.
All randomized study subjects received either Compound I or matching placebo as a single oral dose after a fasting period of at least 6 hours. Compound I drug substance is a crystalline, free-base, synthetic molecule with a molecular weight of 435.4 g/mol.
Compound I was provided as a powder for oral suspension. Placebo was provided as calcium carbonate powder. Both treatments were closed orally as a suspension. The suspension was made using Ora-Plus® suspending vehicle (Perrigo) and a cherry syrup flavoring vehicle (Humco), mixed 50% to 50%. The suspension was followed by approximately 100 mL water. The suspension was made up within 14 days from the time in which it was closed which was consistent with the stability data on the suspension. The suspension was made up so the volume administered to the subjects who received Compound I was the same at 20 mL.
Each subject received a close according to the cohort in which they were enrolled. Cohorts were enrolled sequentially, with each cohort receiving an escalated dose of Compound I. The closes administered were 3 mg, 10 mg, 25 mg, 50 mg, 100 mg, 175 mg, 350 mg, and 525 mg, respectively.
The concentrations of Compound I in human plasma and urine were quantitated by high performance liquid chromatography with tandem mass spectrometric detection (LC MS/MS) (Biological sample analysis study report Alturas AD17-726). Plasma samples were extracted by protein precipitation with acetonitrile containing internal standard MYK-5654. The calibration curves were linear over concentration range of 0.500 to 1000 ng/mL with a lower limit of quantification (LLOQ) of 0.500 ng/mL.
The PK Population included all subjects who received Compound I. Blood samples were collected for PK assessments. The actual timing of the samples may have been modified and/or up to an additional 2 samples may have been requested by the SRC after review of the data from previous cohorts. It was important that PK sampling occurred as closely as possible to the scheduled time (±10%). Both blood and urine samples were used for PK assessments.
In addition, for subjects who received placebo, a single plasma sample near the predicted tmax of Compound I was evaluated to confirm the lack of circulating Compound I. Plasma concentration data for Compound I was summarized using descriptive statistics, including mean, standard deviation (SD), median, minimum, and maximum values, and percent coefficient of variation. Other PK parameters included (but were not limited to) Cmax, tmax, AUC, t1/2, and MRT. Additionally, the apparent terminal-phase terminal half-life was calculated. The close proportionality of AUC and Cmax was explored.

[1] = 10 mg, 10 mg, read-out: Plasma concentration, Median
[2] = 25 mg, 25 mg, read-out: Plasma concentration, Geometric Mean
[3] = 25 mg, 25 mg, read-out: Plasma concentration, Mean
[4] = 25 mg, 25 mg, read-out: Plasma concentration, Median
[5] = 50 mg, 50 mg, read-out: Plasma concentration, Geometric Mean
[6] = 50 mg, 50 mg, read-out: Plasma concentration, Mean
[7] = 50 mg, 50 mg, read-out: Plasma concentration, Median

Cn1cc(S(=O)(=O)[C@@](C)(F)C2CCN(C(=O)Nc3ccon3)CC2)c(C(F)F)n1 [Compound I, (R)-4-(1-((3-(difluoromethyl)-1-methyl-1H-pyrazol-4-yl)sulfonyl)-1-fluoroethyl)-N-(isoxazol-3-yl)piperidine-1-carboxamide]
concentration at 48 h [1]: 15.4 ng/mL | concentration at 72 h (10 mg, 10 mg, read-out: Plasma concentration, Geometric Mean): 4.5 ng/mL | concentration at 72 h (10 mg, 10 mg, read-out: Plasma concentration, Mean): 4.93 ng/mL | concentration at 72 h [1]: 4.01 ng/mL | AUC(0-t) (10 mg, read-out: AUC0-24, Geometric Mean): 2120 ng·h/mL | AUC(0-t) (10 mg, read-out: AUC0-24, Mean): 2140 ng·h/mL | AUC(0-t) (10 mg, read-out: AUC0-24, Median): 2250 ng·h/mL | AUC(0-t) (10 mg, read-out: AUC0-48, Geometric Mean): 2980 ng·h/mL | AUC(0-t) (10 mg, read-out: AUC0-48, Mean): 3030 ng·h/mL | AUC(0-t) (10 mg, read-out: AUC0-48, Median): 3190 ng·h/mL | AUC(0-t) (10 mg, read-out: AUC0-last, Geometric Mean): 3280 ng·h/mL | AUC(0-t) (10 mg, read-out: AUC0-last, Mean): 3350 ng·h/mL | AUC(0-t) (10 mg, read-out: AUC0-last, Median): 3420 ng·h/mL | AUC(0-inf) (10 mg, read-out: AUC0-∞, Geometric Mean): 3350 ng·h/mL | AUC(0-inf) (10 mg, read-out: AUC0-∞, Mean): 3410 ng·h/mL | AUC(0-inf) (10 mg, read-out: AUC0-∞, Median): 3480 ng·h/mL | Cmax (10 mg, read-out: Cmax, Geometric Mean): 138 ng/mL | Cmax (10 mg, read-out: Cmax, Mean): 139 ng/mL | Cmax (10 mg, read-out: Cmax, Median): 146 ng/mL | half-life (10 mg, read-out: Half-Life Lambda Z, Geometric Mean (converted)): 13.2 h | half-life (10 mg, read-out: Half-Life Lambda Z, Mean (converted)): 13.4 h | half-life (10 mg, read-out: Half-Life Lambda Z, Median (converted)): 12.9 h | MRT (10 mg, read-out: Mean Residence Time, Geometric Mean): 21.1 h | MRT (10 mg, read-out: Mean Residence Time, Mean): 21.2 h | MRT (10 mg, read-out: Mean Residence Time, Median): 20.1 h | Tmax (10 mg, read-out: Tmax, Geometric Mean): 4.8 h | Tmax (10 mg, read-out: Tmax, Mean): 4.85 h | Tmax (10 mg, read-out: Tmax, Median): 5 h | Vd/F (10 mg, read-out: Vz/F, Geometric Mean): 57.1 L | Vd/F (10 mg, read-out: Vz/F, Mean): 58.5 L | Vd/F (10 mg, read-out: Vz/F, Median): 55.8 L | concentration at 6 h [2]: 281 ng/mL | concentration at 6 h [3]: 286 ng/mL | concentration at 6 h [4]: 286 ng/mL | concentration at 12 h [2]: 205 ng/mL | concentration at 12 h [3]: 211 ng/mL | concentration at 12 h [4]: 223 ng/mL | concentration at 24 h [2]: 114 ng/mL | concentration at 24 h [3]: 118 ng/mL | concentration at 24 h [4]: 124 ng/mL | concentration at 48 h [2]: 33.3 ng/mL | concentration at 48 h [3]: 35.8 ng/mL | concentration at 48 h [4]: 35.5 ng/mL | concentration at 72 h [2]: 8.4 ng/mL | concentration at 72 h [3]: 9.78 ng/mL | concentration at 72 h [4]: 8.51 ng/mL | AUC(0-t) (25 mg, read-out: AUC0-24, Geometric Mean): 4550 ng·h/mL | AUC(0-t) (25 mg, read-out: AUC0-24, Mean): 4650 ng·h/mL | AUC(0-t) (25 mg, read-out: AUC0-24, Median): 4850 ng·h/mL | AUC(0-t) (25 mg, read-out: AUC0-48, Geometric Mean): 6320 ng·h/mL | AUC(0-t) (25 mg, read-out: AUC0-48, Mean): 6500 ng·h/mL | AUC(0-t) (25 mg, read-out: AUC0-48, Median): 6890 ng·h/mL | AUC(0-t) (25 mg, read-out: AUC0-last, Geometric Mean): 6920 ng·h/mL | AUC(0-t) (25 mg, read-out: AUC0-last, Mean): 7160 ng·h/mL | AUC(0-t) (25 mg, read-out: AUC0-last, Median): 7420 ng·h/mL | AUC(0-inf) (25 mg, read-out: AUC0-∞, Geometric Mean): 7050 ng·h/mL | AUC(0-inf) (25 mg, read-out: AUC0-∞, Mean): 7290 ng·h/mL | AUC(0-inf) (25 mg, read-out: AUC0-∞, Median): 7570 ng·h/mL | Cmax (25 mg, read-out: Cmax, Geometric Mean): 298 ng/mL | Cmax (25 mg, read-out: Cmax, Mean): 304 ng/mL | Cmax (25 mg, read-out: Cmax, Median): 313 ng/mL | half-life (25 mg, read-out: Half-Life Lambda Z, Geometric Mean (converted)): 13.1 h | half-life (25 mg, read-out: Half-Life Lambda Z, Mean (converted)): 13.3 h | half-life (25 mg, read-out: Half-Life Lambda Z, Median (converted)): 12.7 h | MRT (25 mg, read-out: Mean Residence Time, Geometric Mean): 20.6 h | MRT (25 mg, read-out: Mean Residence Time, Mean): 20.8 h | MRT (25 mg, read-out: Mean Residence Time, Median): 20.1 h | Tmax (25 mg, read-out: Tmax, Geometric Mean): 4.64 h | Tmax (25 mg, read-out: Tmax, Mean): 4.67 h | Tmax (25 mg, read-out: Tmax, Median): 5 h | Vd/F (25 mg, read-out: Vz/F, Geometric Mean): 67.3 L | Vd/F (25 mg, read-out: Vz/F, Mean): 68.6 L | Vd/F (25 mg, read-out: Vz/F, Median): 66.5 L | concentration at 6 h [5]: 424 ng/mL | concentration at 6 h [6]: 431 ng/mL | concentration at 6 h [7]: 420 ng/mL | concentration at 12 h [5]: 317 ng/mL | concentration at 12 h [6]: 322 ng/mL | concentration at 12 h [7]: 297 ng/mL | concentration at 24 h [5]: 175 ng/mL | concentration at 24 h [6]: 178 ng/mL | concentration at 24 h [7]: 174 ng/mL | concentration at 48 h [5]: 49.5 ng/mL | concentration at 48 h [6]: 51.9 ng/mL | concentration at 48 h [7]: 57.4 ng/mL | concentration at 72 h [5]: 13.5 ng/mL | concentration at 72 h [6]: 15.2 ng/mL | concentration at 72 h [7]: 18.8 ng/mL | AUC(0-t) (50 mg, read-out: AUC0-24, Geometric Mean): 7210 ng·h/mL | AUC(0-t) (50 mg, read-out: AUC0-24, Mean): 7300 ng·h/mL | AUC(0-t) (50 mg, read-out: AUC0-24, Median): 6730 ng·h/mL | AUC(0-t) (50 mg, read-out: AUC0-48, Geometric Mean): 9930 ng·h/mL | AUC(0-t) (50 mg, read-out: AUC0-48, Mean): 10100 ng·h/mL | AUC(0-t) (50 mg, read-out: AUC0-48, Median): 9500 ng·h/mL | AUC(0-t) (50 mg, read-out: AUC0-last, Geometric Mean): 11100 ng·h/mL | AUC(0-t) (50 mg, read-out: AUC0-last, Mean): 11200 ng·h/mL | AUC(0-t) (50 mg, read-out: AUC0-last, Median): 11200 ng·h/mL | AUC(0-inf) (50 mg, read-out: AUC0-∞, Geometric Mean): 11200 ng·h/mL | AUC(0-inf) (50 mg, read-out: AUC0-∞, Mean): 11300 ng·h/mL | AUC(0-inf) (50 mg, read-out: AUC0-∞, Median): 11200 ng·h/mL | Cmax (50 mg, read-out: Cmax, Geometric Mean): 490 ng/mL | Cmax (50 mg, read-out: Cmax, Mean): 500 ng/mL | Cmax (50 mg, read-out: Cmax, Median): 470 ng/mL | half-life (50 mg, read-out: Half-Life Lambda Z, Geometric Mean (converted)): 13.4 h | half-life (50 mg, read-out: Half-Life Lambda Z, Mean (converted)): 13.6 h | half-life (50 mg, read-out: Half-Life Lambda Z, Median (converted)): 13.8 h | MRT (50 mg, read-out: Mean Residence Time, Geometric Mean): 20.8 h | MRT (50 mg, read-out: Mean Residence Time, Mean): 21 h | MRT (50 mg, read-out: Mean Residence Time, Median): 21.5 h | Tmax (50 mg, read-out: Tmax, Geometric Mean): 4.66 h | Tmax (50 mg, read-out: Tmax, Mean): 4.69 h | Tmax (50 mg, read-out: Tmax, Median): 5 h | Vd/F (50 mg, read-out: Vz/F, Geometric Mean): 86.6 L
